According to US10588935B2, “FC receptor (FcRn) binding peptides and uses thereof” (THE BRIGHAM AND WOMEN'S HOSPITAL, INC., priority 2013, dated 2020):
Where two headings read alike, the source gives them in different places. Bridge positions count the residues as written; N and C are the ends. Peptide text beside a SMILES is read from it.

Molecular target: T1, soluble human FcRn (Homo sapiens, UniProt P55899)
T1 construct: Soluble human FcRn was expressed and purified by Biogen-Idec as previously described (29)
T1 sequence (P55899 24-297 limits assumed): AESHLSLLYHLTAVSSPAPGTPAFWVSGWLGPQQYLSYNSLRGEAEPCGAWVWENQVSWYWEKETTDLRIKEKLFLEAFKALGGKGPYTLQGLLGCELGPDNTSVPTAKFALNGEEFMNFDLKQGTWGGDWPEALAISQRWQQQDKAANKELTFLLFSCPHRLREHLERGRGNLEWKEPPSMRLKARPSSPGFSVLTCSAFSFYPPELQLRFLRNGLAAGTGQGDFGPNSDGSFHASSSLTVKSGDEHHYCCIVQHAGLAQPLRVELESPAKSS
T1 sequence (P61769 21-119 partner): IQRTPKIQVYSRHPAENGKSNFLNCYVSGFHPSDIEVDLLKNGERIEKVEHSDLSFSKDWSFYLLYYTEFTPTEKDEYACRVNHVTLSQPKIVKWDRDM
Assay: SPR (Biacore) affinity of peptides for immobilized soluble human FcRn
Format: binding
Experimental: SPR analyses were conducted using a Biacore 3000 or T100 instrument. Research-grade CM5 sensor chips and all coupling reagents for immobilization were purchased from Biacore. All proteins were cross-linked to the dextran surface of a CM5 sensor chip by standard amine coupling chemistry as recommended by Biacore. […] Binding experiments were performed at pH 6.0 or 7.4 using 50 mM phosphate, 100 mM sodium chloride and 0.01% surfactant P20. […] Bound albumin protein was then allowed to dissociate from the chip for 5 minutes with running buffer. Any remaining albumin was removed from the chip with a 60 second injection (2 cycles) of pH 8.0 Tris-HCl regeneration buffer (1 M Tris pH 8.0) at 25 μL/min flow rate. The binding responses recorded near the end of the association phase were plotted as a function of concentration. Equilibrium dissociation constants (KD), were derived from sensorgrams using the 1:1 binding model of BIAevaluation software 4.1.

[1] = Table 1, pH 6, shFcRn immobilized on the sensor chip, steady state fit, read-out: Kd, pH 6** Biacore
[2] = Table 2, pH 6, immobilized shFcRn, data fit steady state or 2 site, read-out: Kd, pH 6** Biacore
[3] = Table 2, pH 7.4, data only 100 uM, therefore Kd may be higher, read-out: Kd, pH 7.4 Biacore

SMILES | Kd [1] [µM] | Kd Ratio 7.4/6.0 (Table 2) | Kd [2] [µM] | Kd [3] [µM]
CC(=O)N[C@@H](CCCNC(=N)N)C(=O)N[C@@H](Cc1ccc(O)cc1)C(=O)N[C@@H](Cc1ccccc1)C(=O)N[C@H]1CSSC[C@@H](C(=O)N[C@@H](CCC(=O)O)C(=O)N[C@@H](CCC(=O)O)C(=O)N[C@H](C(N)=O)C(C)C)NC(=O)[C@H](Cc2c[nH]c3ccccc23)NC(=O)CNC(=O)[C@H](Cc2c[nH]cn2)NC(=O)[C@H](CCCCN)NC(=O)[C@H](Cc2c[nH]c3ccccc23)NC(=O)[C@H](CCCCN)NC(=O)[C@H](C)NC1=O [SYN1545] (Ac-RYFCAKWKHGWCEEV-NH2; disulfide 4-12 (inferred)) | 9.3 | – | – | –
CSCC[C@H](NC(=O)[C@H](Cc1ccc(O)cc1)NC(C)=O)C(=O)N[C@H](C(=O)N[C@H]1CSSC[C@@H](C(=O)N[C@@H](CCC(=O)O)C(=O)N[C@@H](Cc2ccc(O)cc2)C(=O)N[C@H](C(N)=O)C(C)C)NC(=O)[C@H](CO)NC(=O)[C@H](Cc2ccccc2)NC(=O)CNC(=O)[C@H](CC(=O)O)NC(=O)[C@H](CC(=O)O)NC(=O)[C@H](Cc2c[nH]c3ccccc23)NC(=O)[C@H](C)NC1=O)[C@@H](C)O [SYN1147] (Ac-YMTCAWDDGFSCEYV-NH2; disulfide 4-12 (inferred)) | – | 56 | – | –
CC(=O)N[C@@H](C)C(=O)NCC(=O)N[C@@H](CCCNC(=N)N)C(=O)N[C@@H](Cc1ccc(O)cc1)C(=O)N[C@@H](Cc1ccccc1)C(=O)N[C@H]1CSSC[C@@H](C(=O)N[C@@H](CCC(=O)O)C(=O)N[C@@H](CCC(=O)O)C(=O)N[C@H](C(=O)NCC(=O)N[C@H](C(=O)NCC(=O)NCC(N)=O)[C@@H](C)O)C(C)C)NC(=O)[C@H](Cc2c[nH]c3ccccc23)NC(=O)CNC(=O)[C@H](Cc2c[nH]cn2)NC(=O)[C@H](CCCCN)NC(=O)[C@H](Cc2c[nH]c3ccccc23)NC(=O)[C@H](CCCCN)NC(=O)[C@H]([C@@H](C)O)NC1=O [SYN1708] | 0.57 | – | – | –
CSCC[C@H](NC(=O)[C@@H](NC(C)=O)C(C)C)C(=O)N[C@@H](Cc1c[nH]cn1)C(=O)N[C@H]1CSSC[C@@H](C(=O)N[C@@H](CCC(=O)O)C(=O)N[C@@H](CCC(N)=O)C(=O)NCC(N)=O)NC(=O)[C@H](CCCCN)NC(=O)[C@H](Cc2ccccc2)NC(=O)[C@H](CCC(=O)O)NC(=O)[C@H](CCC(=O)O)NC(=O)[C@H](CC(=O)O)NC(=O)[C@H](Cc2c[nH]c3ccccc23)NC(=O)[C@H](Cc2ccccc2)NC1=O [SYN1258] (Ac-VMHCFWDEEFKCEQG-NH2; disulfide 4-12 (inferred)) | – | 65 | – | –
CSCC[C@H](NC(=O)[C@H](Cc1ccc(O)cc1)NC(C)=O)C(=O)N[C@H](C(=O)N[C@H]1CSSC[C@@H](C(=O)N[C@@H](CCC(=O)O)C(=O)N[C@@H](Cc2ccc(O)cc2)C(=O)N[C@H](C(N)=O)C(C)C)NC(=O)[C@H](CO)NC(=O)[C@H](Cc2ccccc2)NC(=O)[C@H](C)NC(=O)[C@H](CC(=O)O)NC(=O)[C@H](CC(=O)O)NC(=O)[C@H](Cc2c[nH]c3ccccc23)NC(=O)[C@H](CCCCN)NC1=O)[C@@H](C)O [SYN1151] (Ac-YMTCKWDDAFSCEYV-NH2; disulfide 4-12 (inferred)) | – | 25 | 1.5 ± 0.22 | –
CSCC[C@H](NC(=O)[C@@H](NC(C)=O)C(C)C)C(=O)N[C@@H](Cc1c[nH]cn1)C(=O)N[C@H]1CSSC[C@@H](C(=O)N[C@@H](CC(=O)O)C(=O)N[C@@H](Cc2ccc(O)cc2)C(=O)NCC(N)=O)NC(=O)[C@H](CCCCN)NC(=O)[C@H](Cc2ccccc2)NC(=O)[C@H](CCC(=O)O)NC(=O)[C@H](CCC(=O)O)NC(=O)[C@H](CC(=O)O)NC(=O)[C@H](Cc2c[nH]c3ccccc23)NC(=O)[C@H](Cc2ccccc2)NC1=O [SYN1259] (Ac-VMHCFWDEEFKCDYG-NH2; disulfide 4-12 (inferred)) | – | 132 | – | 12
CSCC[C@@H]1NC(=O)[C@H](CCC(=O)O)NC(=O)[C@H](CCC(=O)O)NC(=O)[C@H](CC(=O)O)NC(=O)[C@H](Cc2c[nH]c3ccccc23)NC(=O)[C@H](Cc2c[nH]c3ccccc23)NC(=O)[C@@H](NC(=O)[C@H](CCCNC(=N)N)NC(=O)[C@H](CCSC)NC(=O)[C@@H](NC(C)=O)C(C)C)CSSC[C@@H](C(=O)N[C@@H](CCCNC(=N)N)C(=O)N[C@@H](C)C(=O)N[C@@H](Cc2ccccc2)C(N)=O)NC(=O)[C@H](CC(C)C)NC1=O [SYN1534] (Ac-VMRCWWDEEMLCRAF-NH2; disulfide 4-12 (inferred)) | – | 125 | – | –
CSCC[C@H](NC(=O)[C@H](C)NC(C)=O)C(=O)N[C@H](C(=O)N[C@H]1CSSC[C@@H](C(=O)N[C@@H](CCC(=O)O)C(=O)N[C@@H](Cc2ccc(O)cc2)C(=O)N[C@H](C(N)=O)C(C)C)NC(=O)[C@H](CO)NC(=O)[C@H](Cc2ccccc2)NC(=O)CNC(=O)[C@H](CC(=O)O)NC(=O)[C@H](CC(=O)O)NC(=O)[C@H](Cc2c[nH]c3ccccc23)NC(=O)[C@H](CCCCN)NC1=O)[C@@H](C)O [SYN1144] (Ac-AMTCKWDDGFSCEYV-NH2; disulfide 4-12 (inferred)) | – | 23.3 | – | –
CSCC[C@H](NC(=O)[C@H](Cc1ccc(O)cc1)NC(C)=O)C(=O)N[C@H](C(=O)N[C@H]1CSSC[C@@H](C(=O)N[C@@H](CCC(=O)O)C(=O)N[C@@H](Cc2ccc(O)cc2)C(=O)N[C@H](C(N)=O)C(C)C)NC(=O)[C@H](CO)NC(=O)[C@H](Cc2ccccc2)NC(=O)CNC(=O)[C@H](C)NC(=O)[C@H](CC(=O)O)NC(=O)[C@H](Cc2c[nH]c3ccccc23)NC(=O)[C@H](CCCCN)NC1=O)[C@@H](C)O [SYN1150] (Ac-YMTCKWDAGFSCEYV-NH2; disulfide 4-12 (inferred)) | – | 2.2 | – | –
CSCC[C@H](NC(=O)[C@H](Cc1ccc(O)cc1)NC(C)=O)C(=O)N[C@@H](Cc1c[nH]cn1)C(=O)N[C@H]1CSSC[C@@H](C(=O)N[C@@H](CC(=O)O)C(=O)N[C@@H](CCC(N)=O)C(=O)NCC(N)=O)NC(=O)[C@H](CCCCN)NC(=O)[C@H](Cc2ccccc2)NC(=O)[C@H](CCC(=O)O)NC(=O)[C@H](CCC(=O)O)NC(=O)[C@H](CC(=O)O)NC(=O)[C@H](Cc2c[nH]c3ccccc23)NC(=O)[C@H](Cc2ccccc2)NC1=O [SYN1256] (Ac-YMHCFWDEEFKCDQG-NH2; disulfide 4-12 (inferred)) | – | 69 | – | –
CSCC[C@@H]1NC(=O)[C@H](CCC(=O)O)NC(=O)[C@H](CCC(=O)O)NC(=O)[C@H](CC(=O)O)NC(=O)[C@H](Cc2c[nH]c3ccccc23)NC(=O)[C@H](Cc2ccccc2)NC(=O)[C@@H](NC(=O)[C@H](CCCCN)NC(=O)[C@H](CCSC)NC(=O)[C@@H](NC(C)=O)C(C)C)CSSC[C@@H](C(=O)N[C@@H](CCCNC(=N)N)C(=O)N[C@@H](C)C(=O)N[C@@H](Cc2ccccc2)C(N)=O)NC(=O)[C@H](CC(C)C)NC1=O [SYN1535] (Ac-VMKCFWDEEMLCRAF-NH2; disulfide 4-12 (inferred)) | – | 35 | – | –
CSCC[C@H](NC(=O)[C@H](Cc1ccc(O)cc1)NC(C)=O)C(=O)N[C@H](C(=O)N[C@H]1CSSC[C@@H](C(=O)N[C@@H](CCC(=O)O)C(=O)N[C@@H](Cc2ccc(O)cc2)C(=O)N[C@@H](C)C(N)=O)NC(=O)[C@H](CO)NC(=O)[C@H](Cc2ccccc2)NC(=O)CNC(=O)[C@H](CC(=O)O)NC(=O)[C@H](CC(=O)O)NC(=O)[C@H](Cc2c[nH]c3ccccc23)NC(=O)[C@H](CCCCN)NC1=O)[C@@H](C)O [SYN1156] (Ac-YMTCKWDDGFSCEYA-NH2; disulfide 4-12 (inferred)) | – | 38 | – | 22
CSCC[C@H](NC(=O)[C@@H](NC(C)=O)C(C)C)C(=O)N[C@@H](CCCCN)C(=O)N[C@H]1CSSC[C@@H](C(=O)N[C@@H](CCCNC(=N)N)C(=O)N[C@@H](C)C(=O)N[C@@H](Cc2ccccc2)C(N)=O)NC(=O)[C@H](CC(C)C)NC(=O)[C@H](Cc2ccccc2)NC(=O)[C@H](CCC(=O)O)NC(=O)[C@H](CCC(=O)O)NC(=O)[C@H](CC(=O)O)NC(=O)[C@H](Cc2c[nH]c3ccccc23)NC(=O)[C@H](Cc2c[nH]c3ccccc23)NC1=O [SYN1536] (Ac-VMKCWWDEEFLCRAF-NH2; disulfide 4-12 (inferred)) | – | 61 | 0.031 | 1.1
CSCC[C@H](NC(=O)[C@H](Cc1ccc(O)cc1)NC(C)=O)C(=O)N[C@@H](C)C(=O)N[C@H]1CSSC[C@@H](C(=O)N[C@@H](CCC(=O)O)C(=O)N[C@@H](Cc2ccc(O)cc2)C(=O)N[C@H](C(N)=O)C(C)C)NC(=O)[C@H](CO)NC(=O)[C@H](Cc2ccccc2)NC(=O)CNC(=O)[C@H](CC(=O)O)NC(=O)[C@H](CC(=O)O)NC(=O)[C@H](Cc2c[nH]c3ccccc23)NC(=O)[C@H](CCCCN)NC1=O [SYN1146] (Ac-YMACKWDDGFSCEYV-NH2; disulfide 4-12 (inferred)) | – | 34.4 | – | 8.6
CC(=O)N[C@@H](CCCNC(=N)N)C(=O)N[C@@H](Cc1ccc(O)cc1)C(=O)N[C@@H](Cc1ccccc1)C(=O)N[C@H]1CSSC[C@@H](C(=O)N[C@@H](CCC(=O)O)C(=O)N[C@@H](CCC(=O)O)C(=O)N[C@H](C(N)=O)C(C)C)NC(=O)[C@H](C)NC(=O)CNC(=O)[C@H](Cc2c[nH]cn2)NC(=O)[C@H](CCCCN)NC(=O)[C@H](Cc2c[nH]c3ccccc23)NC(=O)[C@H](CCCCN)NC(=O)[C@H]([C@@H](C)O)NC1=O [SYN1551] (Ac-RYFCTKWKHGACEEV-NH2; disulfide 4-12) | > 200 | – | – | –
